Source: patent US11497731B2, “β-lactamase inhibitor” (NATIONAL UNIVERSITY CORPORATION TOKAI NATIONAL HIGHER …, priority 2018, dated 2022)
Values after ≈ are worked out from the molar mass of the structure shown. Read-outs that look alike come from different tables or passages of the source.

Legend:
[1] = target: metallo-β-lactamase (IMP-1) (Serratia marcescens, UniProt P52699); experiment: Enzyme activity measurement test (imipenem decomposition); format: biochemical
Description: A metallo-β-lactamase (IMP-1) (final concentration: 10 nM), and imipenem (final concentration: 100 μM) as a substrate were used. The imipenem decomposition activity (Dabs/min) at each point under the conditions of absorbance: 298 nm and temperature: 30° C. was measured by varying the concentrations of test substances (compounds Nos. 9-7, 9-8, and 9-9) as inhibitors (0 μM, 10 μM, and 100 μM). The activity when no test substance was added was defined as 100%, and the relative activity value when each test substance was individually added was calculated.

IMP-1 = IMP-1 (Serratia marcescens, UniProt P52699); experiment: Inhibition constant (Ki) measurement test, IMP-1; format: biochemical; conditions: imipenem substrate, enzyme 10 nM, 30° C., Lineweaver-Burk; read-out: Inhibition constant Ki IMP-1
Chain of IMP-1 (P52699 19-246, looked up, species assumed): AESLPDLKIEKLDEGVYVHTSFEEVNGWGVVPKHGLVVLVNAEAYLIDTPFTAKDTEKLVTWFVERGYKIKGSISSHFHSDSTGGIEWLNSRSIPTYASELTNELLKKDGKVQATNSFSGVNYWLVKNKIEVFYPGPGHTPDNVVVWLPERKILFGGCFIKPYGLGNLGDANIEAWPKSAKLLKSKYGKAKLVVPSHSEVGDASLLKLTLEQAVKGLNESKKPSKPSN
Description: (§1) The inhibition constant (Ki) measurement test was performed in the following manner. The inhibition constant (Ki) was measured using various metallo-β-lactamases (final concentration: 10 nM). The imipenem decomposition activity (Δabs/min) at each point under the conditions of absorbance: 298 nm and temperature: 30° C. was measured by varying the concentration of imipenem as a substrate and the concentrations of test substances (compounds A to E) as inhibitors. Each measured value was fitted to the Lineweaver-Burk plot equation to calculate Ki.
(§2) The test was performed in the same manner as in Test Example 6, except that X2a, X2b, X2c, X2d, X3a, and X4 were used as test substances (inhibitors).

NDM-1 = NDM-1 (Klebsiella pneumoniae, UniProt C7C422); experiment: Inhibition constant (Ki) measurement test, NDM-1; format: biochemical; conditions: imipenem substrate, enzyme 10 nM, 30° C., Lineweaver-Burk; read-out: Inhibition constant Ki NDM-1
Chain of NDM-1 (C7C422 29-270, looked up, species assumed): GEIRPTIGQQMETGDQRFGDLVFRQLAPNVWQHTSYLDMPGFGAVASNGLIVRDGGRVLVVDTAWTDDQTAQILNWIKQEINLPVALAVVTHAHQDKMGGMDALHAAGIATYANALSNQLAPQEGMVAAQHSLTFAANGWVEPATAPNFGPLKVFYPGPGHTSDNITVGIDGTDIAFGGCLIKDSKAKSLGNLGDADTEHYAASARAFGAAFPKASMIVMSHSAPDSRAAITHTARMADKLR
Description: as §1, §2

VIM-2 = VIM-2 (Escherichia coli, UniProt Q5U7L7); experiment: Inhibition constant (Ki) measurement test, VIM-2; format: biochemical; conditions: imipenem substrate, enzyme 10 nM, 30° C., Lineweaver-Burk; read-out: Inhibition constant Ki VIM-2
Description: as §1, §2

[2] = test system: bacteria into which a plasmid encoding NDM-1 was introduced (pBCSK (+)/E. coli DH5a); experiment: Drug susceptibility test (MIC), NDM-1-producing strain; format: cell-based; conditions: Escherichia coli, read-out: MIC CAZ
Description: (§3) Plates for drug susceptibility test measurement were prepared by using 96- or 384-well U-bottom plates, a Mueller-Hinton liquid medium, and antimicrobial drugs (ceftazidime (CAZ), imipenem (IPM), meropenem (MPM), doripenem (DPM), and biapenem (BPM)). A 1/2 antimicrobial drug dilution series was made up to well 11 of, for example, a 96-well U-bottom plate so that the leftmost well 1 of row A contained an antimicrobial drug at the maximum concentration, the antimicrobial drug concentration in well 2 to the right of well 1 was 1/2 of the maximum concentration, the antimicrobial drug concentration in well 3 to the right of well 2 was 1/4 of the maximum concentration, and so on. […] An antimicrobial drug dilution series was made in each of rows B and C in the same manner as in row A. Further, 10 μg/mL and 50 μg/mL of a test substance (compound A) were added to row B and row C, respectively (FIG. 1).
(§4) Bacteria into which a plasmid encoding a class B β-lactamase (metallo-β-lactamase (MBL): NDM-1, or VIM-2) was introduced (pBCSK (+)/E. coli DH5a) were used as test bacteria. The test bacteria were adjusted to 10^8 cfu/mL with a Mueller-Hinton medium. Further, the test bacteria were diluted 10-fold with a Mueller-Hinton medium (10^7 cfu/mL). 5 μl of the test bacteria was collected and inoculated into the plates for drug susceptibility test measurement. After overnight culture at 35° C., the growth of the test bacteria was visually checked. The concentration of the antimicrobial drug in a well containing the lowest concentration of the antimicrobial drug among the wells in which no growth of the test bacteria was confirmed was defined as the minimal inhibitory concentration value (FIG. 1).
(§5) The drug susceptibility test was performed in the same manner as in Test Example 1, except that compounds A to C and E to I were used as test substances.
(§6) The test was performed in the same manner as in Test Example 1, except that X2a, X2b, X2c, X2d, X3a, and X4 were used as test substances (inhibitors). The inhibitor concentration was 10 μg/mL.

[3] = test system: Empty vector (no class B lactamase produced), pBCSK (+)/E. coli DH5a; experiment: Drug susceptibility test (MIC), empty vector strain; format: cell-based; conditions: Escherichia coli, read-out: MIC CAZ
[4] = test system: bacteria into which a plasmid encoding IMP-1 was introduced (pBCSK (+)/E. coli DH5a); experiment: Drug susceptibility test (MIC), IMP-1-producing strain; format: cell-based; conditions: Escherichia coli, read-out: MIC CAZ
[5] = test system: bacteria into which a plasmid encoding VIM-2 was introduced (pBCSK (+)/E. coli DH5a); experiment: Drug susceptibility test (MIC), VIM-2-producing strain; format: cell-based; conditions: for MIC: Escherichia coli
Description: as §3, §4, §5, §6

Chain of metallo-β-lactamase (IMP-1) (P52699 19-246, looked up, species assumed): as the sequence (P52699 19-246, looked up, species assumed) above

| β-lactamase activity inhibition (statement on Table 3) [1] | Compound | Ki (IMP-1) [µM] | Ki (NDM-1) [µM] | Ki (VIM-2) [µM] | further results |
| --- | --- | --- | --- | --- | --- |
| inhibits β-lactamase activity | Cc1oc(C)c(S(=O)(=O)N2CC3CCCC3C2)c1C(=O)O (stereo not drawn) [9-7] |  |  |  |  |
| inhibits β-lactamase activity | Cc1oc(C)c(S(=O)(=O)N2CCC(C)(C)C2)c1C(=O)O [9-8] |  |  |  |  |
| inhibits β-lactamase activity | CCc1ccccc1CNS(=O)(=O)c1c(C)oc(C)c1C(=O)O [9-9] |  |  |  |  |
|  | NS(=O)(=O)c1sccc1C(=O)O [B] | 34.1 | 7.68 | 15.5 |  |
|  | CC(C)(O/N=C(\C(=O)N[C@@H]1C(=O)N2C(C(=O)[O-])=C(C[n+]3ccccc3)CS[C@H]12)c1csc(N)n1)C(=O)O [CAZ, ceftazidime, reference compound] |  |  |  | MIC [2]: > 1020 µg/mL; MIC [3]: 0.25 µg/mL (≈ 0.457 µM); MIC [4]: 256 µg/mL (≈ 468 µM); MIC ([5]; read-out: Ceftazidime MIC VIM-2-producing strain, No inhibitor): 16 µg/mL (≈ 29.3 µM); MIC ([5]; read-out: MIC CAZ): 4 µg/mL (≈ 7.32 µM); MIC VIM-2 ceftazidime, None ([5]; ceftazidime alone, no test substance added, Table 2): 16 mg I^−1 |
|  | NS(=O)(=O)c1sc(Cl)cc1C(=O)O [C] | 19.1 | 19.3 | 2.29 |  |
|  | Cc1c(C(=O)O)c(S(N)(=O)=O)c(C)n1-c1ccccc1 [Compound D] | 7.51 | 10.2 | 20.8 |  |
|  | Cc1c(C(=O)O)c(S(N)(=O)=O)c(C)n1C [Compound E] | 1.23 | 9.08 | 0.42 |  |
|  | CCc1oc(CC)c(S(N)(=O)=O)c1C(=O)O [Compound F] | 0.3 | 0.92 | 1.01 |  |
